From patent US8178579B2, “Dioxanes and uses thereof” (President and Fellows of Harvard College, priority 2001, dated 2012)
Entries after “also recorded” stand apart in the source; their conditions may differ.

How the values were obtained:
[1] = test system: rat hippocampal neurons and astrocytes; experiment: cultured rat hippocampal neurons and astrocytes: viability, acetylated α-tubulin, synaptotagmin; format: cell-based
Procedure: All cells were cultured at 37° C. in a humidified incubator supplemented with 5% carbon dioxide. Human A549 lung carcinoma cells, Human HT-1080 fibrosarcoma cells, BSC-1 African green monkey kidney epithelial cells (all from American Tissue Culture Collection) were cultured in Dulbecco's modified eagle medium (DMEM) supplemented with 10% fetal bovine serum, 100 units/mL penicillin G sodium, 100 μg/mL streptomycin sulfate, and 2 mM L-glutamine (DMEM+). Human TAg Jurkat cells and mouse ROSA26 embryonic stem cells (gift of E. Roberston, Harvard University) were cultured as described (12). Mouse NIH-3T3 wild-type (Neo), HDAC6, HDAC6 double mutant, and HDAC1 overexpressing cells (gift from C. Hubbert, Duke University) were cultured as described (C. Hubbert et al., Nature 417, 455 (2002)1). Hippocampal neurons were dissociated from 1-day old rats and grown in culture using methods as described (E. N. Star, D. J. Kwiatkowski and V. N. Murthy, Nat. Neurosci. 5, 239 (2002)). All animal experiments were approved by Harvard University's standing committee on the use of animals in research and training.
(§1) Detection of acetylated α-tubulin and acetylated histones by immunofluorescence was performed as described in Example 6 above. […] For co-localization experiments, biotubacin (50 μM) treated A549 cells were fixed in 3.7% formaldehyde in TBS and processed as for detecting acetylated α-tubulin (See Example 6 above) with biotubacin detected using streptavidin-TR (1:500). HDAC6 was detected using a rabbit polyclonal antibody (1:250-1:750; C.M.G., unpublished data) under the conditions used to detect acetylated α-tubulin (See Example 6 above). Filamentous actin in HT-1080 cells was detected using TR-conjugated phalloidin (1 μg/mL), and depolymerized actin using FITC-conjugated deoxyribonuclease (10 μg/mL), following fixation in 3.7% formaldehyde in TBS. p58 (1:100) in NIH-3T3 cells was detected after fixation in 3.7% formaldehyde in TBS. […]

[2] = test system: α-tubulin; experiment: total and tyrosinated α-tubulin levels in cells; format: cell-based; conditions: tubacin 2 μM, 4 h
Procedure: as §1, with “above. For determining microtubule stability, A549 cells were treated as indicated, fixed in glutaraldehyde, and stained for acetylated α-tubulin and total α-tubulin in antibody dilution buffer (ADB, Tris-buffered saline (TBS), 0.15 M NaCl, 0.02 M Tris-Cl, pH 7.4, with 2% bovine serum albumin and 0.1% Triton-X 100). For cold-depolymerization, cells were incubated at 4° C. or 37° C. for an additional 90 minutes before fixation.” for “above.”

O=C(CCCCCCC(=O)Nc1ccc([C@@H]2OC(c3ccc(CO)cc3)C[C@H](CSc3nc(-c4ccccc4)c(-c4ccccc4)o3)O2)cc1)NO (some centres unmarked) [tubacin]
viability and morphology of neurons and astrocytes ([1]; 7-day old cultures: greater than 5 μM (10 μM, 48 h), 10-day old cultures: 1-2 μM, 96 h): decreased the viability and staining with synaptotagmin; also recorded: had no affect on the viability of 10-day old neurons and astrocytes; also recorded: caused morphological changes and cell death; also recorded: did not cause a significant decrease in the number of 10-day old rat hippocampal neurons or astrocytes
α-tubulin acetylation in neurons and astrocytes ([1]; tubacin 1 μM 96 h or 10 μM 48 h, niltubacin 5 μM): increased the acetylation of α-tubulin; also recorded: increased α-tubulin acetylation in both cell types
synaptotagmin staining / synapses ([1]; tubacin at least 1 μM for four days or 10 μM 48 h, niltubacin 5 μM): decreased the viability and staining with synaptotagmin; also recorded: had fewer synapses when compared to control cells
level of total α-tubulin [2]: No effect of tubacin (2 μM) treatment (4 h) on the levels of α-tubulin; also recorded: did not affect the level of total α-tubulin or the level of α-tubulin containing a carboxy-terminal tyrosine
level of tyrosinated α-tubulin [2]: No effect of tubacin (2 μM) treatment (4 h) on the levels of tyrosinated tubulin; also recorded: did not affect the level of total α-tubulin or the level of α-tubulin containing a carboxy-terminal tyrosine
